Results published in patent US8952024B2, “Herbicidal pyrimidone derivatives” (E I du Pont de Nemours and Company, priority 2009, dated 2015).

How the values were obtained:
Format in all cases: in vivo
[1] = test system: ragweed (common ragweed, Ambrosia elatior); experiment: Test B pre-/postemergence plant response
In short: (§1)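 Pre-em in loam/sand; post-em at 1–4 leaf (2–18 cm) in peat mix. Solvent + surfactant formulation. Greenhouse 13–15 d; visual % control vs untreated, 0–100.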

[2] = test system: soybean (Glycine max); experiment: Test B pre-/postemergence plant response
In short: as §1

[3] = test system: bermudagrass (Cynodon dactylon); experiment: Test B pre-/postemergence plant response
In short: as §1

[4] = test system: Italian ryegrass (Lolium multiflorum); experiment: Test B pre-/postemergence plant response
In short: as §1

[5] = test system: downy bromegrass (Bromus tectorum); experiment: Test B pre-/postemergence plant response
In short: as §1

[6] = test system: blackgrass (Alopecurus myosuroides); experiment: Test B pre-/postemergence plant response
In short: as §1

[7] = test system: johnsongrass (Sorghum halepense); experiment: Test B pre-/postemergence plant response
In short: as §1

[8] = test system: green foxtail (Setaria viridis); experiment: Test B pre-/postemergence plant response
In short: as §1

[9] = test system: morningglory (Ipomoea coccinea); experiment: Test B pre-/postemergence plant response
In short: as §1

[10] = test system: corn (Zea mays); experiment: Test B pre-/postemergence plant response
In short: as §1

[11] = test system: velvetleaf (Abutilon theophrasti); experiment: Test B pre-/postemergence plant response
In short: as §1

[12] = test system: pigweed (Amaranthus retroflexus); experiment: Test B pre-/postemergence plant response
In short: as §1

[13] = test system: wheat (Triticum aestivum); experiment: Test B pre-/postemergence plant response
In short: as §1

[14] = test system: giant foxtail (Setaria faberii); experiment: Test B pre-/postemergence plant response
In short: as §1

[15] = test system: goosegrass (Eleusine indica); experiment: Test B pre-/postemergence plant response
In short: as §1

[16] = test system: chickweed (Stellaria media); experiment: Test B postemergence plant response
In short: (§2)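 Visual ratings from 0 (no effect) to 100 (complete control), made against controls 13–15 days after treatment, kept in a greenhouse. Compounds were applied postemergence to potted plants at the 1- to 4-leaf stage (2–18 cm).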

[17] = test system: winter barley (Hordeum vulgare); experiment: Test B postemergence plant response
In short: as §2

[18] = test system: canarygrass (Phalaris minor); experiment: Test B postemergence plant response
In short: as §2

[19] = 31 g ai/ha, postemergence, scale 0 to 100, 0 is no effect, 100 is complete control
[20] = 62 g ai/ha, postemergence, 0 is no effect, 100 is complete control, 13 to 15 days
[21] = Postemergence, 125 g ai/ha, visual rating after 13 to 15 days, scale 0 (no effect) to 100 (complete control)
[22] = Postemergence, 250 g ai/ha, scale 0 to 100 (0 no effect, 100 complete control)
[23] = Preemergence, 31 g ai/ha, scale 0 to 100 (0 no effect, 100 complete control)
[24] = Preemergence, 62 g ai/ha, scale 0 to 100, 0 no effect, 100 complete control
[25] = Preemergence, 125 g ai/ha, scale 0 to 100, 0 no effect, 100 complete control
[26] = 250 g ai/ha, Preemergence, 0 to 100 scale

With `CCCc1ncc(C(=O)C2=C(O)CCCC2=O)c(=O)n1CCC` [Compound 72] the “Plant response rating, Ragweed” value [1, 19] was 75, the “Ragweed plant response rating (0 to 100 scale)” value [1, 20] was 80 and the “Plant response rating, Ragweed” value [1, 21] was 90. The “Plant response rating, Ragweed” value [1, 22] was 95, the “Plant response rating, Ragweed” value [1, 23] was 55 and the “Plant response rating, Ragweed” value [1, 24] was 70. For the same molecule, the “Plant response rating, Ragweed” value [1, 25] was 80, the “Plant response rating, Soybean” value [2, 19] was 80 and the “Soybean plant response rating (0 to 100 scale)” value [2, 20] was 80. The “Plant response rating, Soybean” value [2, 21] was 85, the “Plant response rating, Soybean” value [2, 22] was 95 and the “Plant response rating, Bermudagrass” value [3, 19] was 75. The “Bermudagrass plant response rating (0 to 100 scale)” value [3, 20] was 80, the “Plant response rating, Bermudagrass” value [3, 26] was 100 and the “Plant response rating, Bermudagrass” value [3, 21] was 85. For the same molecule, the “Plant response rating, Bermudagrass” value [3, 22] was 85, the “Plant response rating, Bermudagrass” value [3, 23] was 95 and the “Plant response rating, Bermudagrass” value [3, 24] was 98. For the same molecule, the “Plant response rating, Bermudagrass” value [3, 25] was 98, the “Plant response rating, Ryegrass, Italian” value [4, 19] was 0 and the “Ryegrass, Italian plant response rating (0 to 100 scale)” value [4, 20] was 0. The “Plant response rating, Ryegrass, Italian” value [4, 21] was 10, the “Plant response rating, Ryegrass, Italian” value [4, 22] was 30 and the “Plant response rating, Ryegrass, Italian” value [4, 23] was 0. For the same molecule, the “Plant response rating, Ryegrass, Italian” value [4, 24] was 0, the “Plant response rating, Ryegrass, Italian” value [4, 25] was 0 and the “Plant response rating, Bromegrass, Downy” value [5, 19] was 0. For the same molecule, the “Bromegrass, Downy plant response rating (0 to 100 scale)” value [5, 20] was 0, the “Plant response rating, Bromegrass, Downy” value [5, 26] was 0 and the “Plant response rating, Bromegrass, Downy” value [5, 21] was 0. For the same molecule, the “Plant response rating, Bromegrass, Downy” value [5, 22] was 20, the “Plant response rating, Bromegrass, Downy” value [5, 23] was 0 and the “Plant response rating, Bromegrass, Downy” value [5, 24] was 0. For the same molecule, the “Plant response rating, Bromegrass, Downy” value [5, 25] was 0, the “Plant response rating, Blackgrass” value [6, 19] was 0 and the “Blackgrass plant response rating (0 to 100 scale)” value [6, 20] was 0. The “Plant response rating, Blackgrass” value [6, 26] was 5, the “Plant response rating, Blackgrass” value [6, 21] was 0 and the “Plant response rating, Blackgrass” value [6, 22] was 0. The “Plant response rating, Blackgrass” value [6, 23] was 0, the “Plant response rating, Blackgrass” value [6, 24] was 0 and the “Plant response rating, Blackgrass” value [6, 25] was 0. The “Plant response rating, Johnsongrass” value [7, 19] was 0, the “Johnsongrass plant response rating (0 to 100 scale)” value [7, 20] was 10 and the “Plant response rating, Johnsongrass” value [7, 26] was 10. The “Plant response rating, Johnsongrass” value [7, 21] was 40, the “Plant response rating, Johnsongrass” value [7, 22] was 45 and the “Plant response rating, Johnsongrass” value [7, 23] was 0. For the same molecule, the “Plant response rating, Johnsongrass” value [7, 24] was 0, the “Plant response rating, Johnsongrass” value [7, 25] was 0 and the “Plant response rating, Foxtail, Green” value [8, 19] was 10. For the same molecule, the “Foxtail, Green plant response rating (0 to 100 scale)” value [8, 20] was 70, the “Plant response rating, Foxtail, Green” value [8, 26] was 90 and the “Plant response rating, Foxtail, Green” value [8, 21] was 90. For the same molecule, the “Plant response rating, Foxtail, Green” value [8, 22] was 90, the “Plant response rating, Foxtail, Green” value [8, 23] was 0 and the “Plant response rating, Foxtail, Green” value [8, 24] was 0. The “Plant response rating, Foxtail, Green” value [8, 25] was 50, the “Plant response rating, Morningglory” value [9, 19] was 20 and the “Morningglory plant response rating (0 to 100 scale)” value [9, 20] was 85. The “Plant response rating, Morningglory” value [9, 21] was 90, the “Plant response rating, Morningglory” value [9, 22] was 90 and the “Plant response rating, Morningglory” value [9, 23] was 0. For the same molecule, the “Plant response rating, Morningglory” value [9, 24] was 55, the “Plant response rating, Morningglory” value [9, 25] was 65 and the “Plant response rating, Corn” value [10, 19] was 0. For the same molecule, the “Corn plant response rating (0 to 100 scale)” value [10, 20] was 0, the “Plant response rating, Corn” value [10, 26] was 0 and the “Plant response rating, Corn” value [10, 21] was 5. The “Plant response rating, Corn” value [10, 22] was 10, the “Plant response rating, Corn” value [10, 23] was 0 and the “Plant response rating, Corn” value [10, 24] was 0. The “Plant response rating, Corn” value [10, 25] was 0, the “Plant response rating, Velvetleaf” value [11, 19] was 98 and the “Velvetleaf plant response rating (0 to 100 scale)” value [11, 20] was 100. The “Plant response rating, Velvetleaf” value [11, 21] was 100, the “Plant response rating, Velvetleaf” value [11, 22] was 100 and the “Plant response rating, Velvetleaf” value [11, 23] was 98. The “Plant response rating, Velvetleaf” value [11, 24] was 100, the “Plant response rating, Velvetleaf” value [11, 25] was 100 and the “Plant response rating, Pigweed” value [12, 19] was 80. The “Pigweed plant response rating (0 to 100 scale)” value [12, 20] was 100, the “Plant response rating, Pigweed” value [12, 21] was 100 and the “Plant response rating, Pigweed” value [12, 22] was 100. For the same molecule, the “Plant response rating, Pigweed” value [12, 23] was 98, the “Plant response rating, Pigweed” value [12, 24] was 98 and the “Plant response rating, Pigweed” value [12, 25] was 100. The “Plant response rating, Wheat” value [13, 19] was 0, the “Wheat plant response rating (0 to 100 scale)” value [13, 20] was 5 and the “Plant response rating, Wheat” value [13, 21] was 10. The “Plant response rating, Wheat” value [13, 22] was 10, the “Plant response rating, Wheat” value [13, 23] was 0 and the “Plant response rating, Wheat” value [13, 24] was 0. The “Plant response rating, Wheat” value [13, 25] was 0, the “Plant response rating, Foxtail, Giant” value [14, 19] was 65 and the “Foxtail, Giant plant response rating (0 to 100 scale)” value [14, 20] was 70. For the same molecule, the “Plant response rating, Foxtail, Giant” value [14, 26] was 65, the “Plant response rating, Foxtail, Giant” value [14, 21] was 75 and the “Plant response rating, Foxtail, Giant” value [14, 22] was 80. The “Plant response rating, Foxtail, Giant” value [14, 23] was 0, the “Plant response rating, Foxtail, Giant” value [14, 24] was 5 and the “Plant response rating, Foxtail, Giant” value [14, 25] was 10. For the same molecule, the “Plant response rating, Goosegrass” value [15, 19] was 60, the “Goosegrass plant response rating (0 to 100 scale)” value [15, 20] was 65 and the “Plant response rating, Goosegrass” value [15, 26] was 100. For the same molecule, the “Plant response rating, Goosegrass” value [15, 21] was 65, the “Plant response rating, Goosegrass” value [15, 22] was 70 and the “Plant response rating, Goosegrass” value [15, 23] was 60. The “Plant response rating, Goosegrass” value [15, 24] was 98, the “Plant response rating, Goosegrass” value [15, 25] was 100 and the “Plant response rating, Chickweed” value [16, 19] was 70. The “Chickweed plant response rating (0 to 100 scale)” value [16, 20] was 85, the “Plant response rating, Chickweed” value [16, 21] was 90 and the “Plant response rating, Chickweed” value [16, 22] was 90. The “Plant response rating, Barley” value [17, 19] was 0, the “Barley plant response rating (0 to 100 scale)” value [17, 20] was 0 and the “Plant response rating, Barley” value [17, 21] was 0. For the same molecule, the “Plant response rating, Barley” value [17, 22] was 0, the “Plant response rating, Canarygrass” value [18, 19] was 0 and the “Canarygrass plant response rating (0 to 100 scale)” value [18, 20] was 0. For the same molecule, the “Plant response rating, Canarygrass” value [18, 21] was 0 and the “Plant response rating, Canarygrass” value [18, 22] was 0.
